According to patent publication US11534448B2, “Use of canagliflozin in preparation of antitumor drug” (ZHEJIANG UNIVERSITY, priority 2019, dated 2022):

Tests used:
Assay type in all cases: cell-based, human
PD-L1 [1] = assay: Western blotting of PD-L1 total protein expression in tumor cells; details: canagliflozin 20 μM + IFNγ 10 ng/mL, 24 h, FIG. 1
Experimental: Multiple human tumor cells, non-small cell lung cancer H1299 cells and osteosarcoma MG63 cells, were selected and respectively inoculated in 6-well plates (1.0×10^6 cells/well), and incubated overnight in incubator at 37° C. with 5% CO2. On the next day, each plate was added with canagliflozin (20 μM) and γ-interferon (IFNγ, 10 ng/mL), and after 24 hours, the cells were collected and lysed to extract the proteins. The expression of PD-L1 in the cells were detected by Western blotting.

PD-L1 [2] = assay: PD-L1 protein stability (cycloheximide chase, Western blotting, gray-scale analysis); details: H1299 cells; IFNγ 10 ng/mL 24 h, then CHX (10 g/mL) + canagliflozin 20 μM vs CHX alone; 0-12 h; FIG. 3
Experimental: The non-small cell lung cancer H1299 cells were inoculated in 6-well plates (1.0×10^6 cells/well), and incubated overnight in incubator at 37° C. with 5% CO2. On the next day, the plates were first added with γ-interferon (IFNγ, 10 ng/mL), and after 24 hours, a protein synthesis inhibitor cycloheximide (CHX, […]) or a co-administration group of CHX ([…])+canagliflozin (20 μM) was administrated simultaneously for these plates. After 0 h, 2 h, 4 h, 6 h, 8 h, and 12 h, respectively, the cells were collected to detect the change of the protein level of PD-L1 in the cells by Western blotting, and a gray-scale analysis was performed to plot a curve for investigating the protein stability.

osteosarcoma MG63 cells = assay: Killing effect of activated T cells on co-incubated tumor cells (crystal violet staining); details: MG63 cells treated with canagliflozin 20 μM + IFNγ 10 ng/mL for 24 h, PD-L1 antibody drug as positive control, FIG. 4
Experimental: (§1) PBMC cells were isolated from human blood samples using Ficoll separation solution, and then stimulated with CD3 and CD28 for 3 days to activate T cells in PBMC, and in the meantime, interleukin-2 (IL-2, 50 U/uL) was administrated to maintain the growth of T cells. The activated T cells were co-incubated with the tumor cells that had been treated with canagliflozin (20 μM) and γ-interferon (IFNγ, 10 ng/mL) for 24 hours. A PD-L1 antibody drug was used as a positive control. The killing effect of T cells on tumor cells was investigated, and a crystal violet staining method was employed to investigate the killing effect of T cells on tumor cells.

[3] = test system: non-small cell lung cancer H1299 cells; assay: as above; details: H1299 cells treated with canagliflozin 20 μM + IFNγ 10 ng/mL for 24 h, PD-L1 antibody drug as positive control, FIG. 4
Experimental: as §1

PD-L1 [4] = assay: Flow cytometry of PD-L1 expression on cell surfaces; details: canagliflozin 20 μM + IFNγ 10 ng/mL, 24 h, FIG. 2
Experimental: Two human tumor cell lines, non-small cell lung cancer H1299 cells and osteosarcoma MG63 cells, were selected and respectively inoculated in 6-well plates (1.0×10^6 cells/well), and incubated overnight in incubator at 37° C. with 5% CO2. On the next day, each plate was added with canagliflozin (20 μM) and γ-interferon (IFNγ, 10 ng/mL), and after 24 hours, the PD-L1 expressions on the cell surfaces were detected with flow cytometry.

[5] = non-small cell lung cancer H1299 cells

Cc1ccc([C@@H]2O[C@H](CO)[C@@H](O)[C@H](O)[C@H]2O)cc1Cc1ccc(-c2ccc(F)cc2)s1 [canagliflozin, (1S)-1,5-anhydro-1-C-[3-[[5-(4-fluorophenyl)-2-thienyl]methyl]-4-methylphenyl]-D-glucitol]
PD-L1 total protein expression (PD-L1 [1]; [5]): significantly inhibited the PD-L1 total protein expression | PD-L1 total protein expression (PD-L1 [1]; osteosarcoma MG63 cells): significantly inhibited the PD-L1 total protein expression | degradation of the PD-L1 protein (PD-L1 [2]): significantly promoted the degradation of the PD-L1 protein | killing effect of T cells on tumor cells (osteosarcoma MG63 cells): significantly enhanced the killing effect of T cells on tumor cells | killing effect of T cells on tumor cells [3]: significantly enhanced the killing effect of T cells on tumor cells | PD-L1 protein expression on the cell surface (PD-L1 [4]; [5]): significantly inhibited the PD-L1 protein expression on the tumor cell surfaces | PD-L1 protein expression on the cell surface (PD-L1 [4]; osteosarcoma MG63 cells): significantly inhibited the PD-L1 protein expression on the tumor cell surfaces
